Among the data in patent US20090247516A1, “3- (BENZO [D] [1,3] DIOXOL-5-YLMETHYL) -4- (THIO) OXO-2- (THIO) OXO-AZOLIDIN-5-YLIDENE DERIVATIVES AS ANTIBACTERIAL AGENTS” (priority 2006, published 2009) are activity and IC50 values, retold here.

In general, IC50 refers to the midpoint of a concentration-inhibition curve.

Molecules are shown by their SMILES. Like-named read-outs stand apart in the source and are kept apart here.

One test has as its target T1, S. aureus MurE (Staphylococcus aureus, UniProt Q2FZP6).
T1 sequence (Q2FZP6 1-493): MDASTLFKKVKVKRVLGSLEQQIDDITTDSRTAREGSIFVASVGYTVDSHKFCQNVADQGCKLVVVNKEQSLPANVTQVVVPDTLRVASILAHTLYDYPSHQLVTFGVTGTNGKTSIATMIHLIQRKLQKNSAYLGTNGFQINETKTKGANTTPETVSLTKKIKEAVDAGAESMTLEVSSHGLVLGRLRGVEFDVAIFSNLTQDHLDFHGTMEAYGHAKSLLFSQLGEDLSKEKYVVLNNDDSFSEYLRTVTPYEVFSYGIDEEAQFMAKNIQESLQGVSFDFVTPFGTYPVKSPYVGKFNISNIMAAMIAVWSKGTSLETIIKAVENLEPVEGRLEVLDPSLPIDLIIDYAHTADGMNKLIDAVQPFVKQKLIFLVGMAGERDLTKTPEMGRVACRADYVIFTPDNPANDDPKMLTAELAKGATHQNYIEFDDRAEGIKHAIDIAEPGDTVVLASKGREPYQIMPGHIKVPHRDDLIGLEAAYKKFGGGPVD
The test can be described thus: MurE enzyme assay (Method B). In kind it is biochemical. The conditions noted are these: for activity at 100 µM: residual activity at 100 μM inhibitor, assay with 5% DMSO and without inhibitor taken as 100%, means of duplicates, read-out: S. aureus MurE RA at 100 μM inhibitor conc.; for IC50: several inhibitor concentrations, Hill equation. The protocol: Method B: MurE Enzyme Assay
The compounds are tested for their ability to inhibit the formation of UDP-MurNAc-L-Ala-γ-D-Glu-L-[^14C]Lys in mixtures (50 μl) containing 0.1 M Tris-HCl, pH 8.6, 15 mM MgCl2, 5 mM ATP, 100 μM UDP-MurNAc-L-Ala-γ-D-Glu, 200 μM L-[^14C]Lys (50,000 cpm), inhibitor (100 μM), DMSO (5%, v/v), and enzyme from S. aureus. After 30 min at 37° C., the reaction is stopped by addition of acetic acid (10 μl). After lyophilization, L-[^14C]Lys and of UDP-MurNAc-L-Ala-Y-D-Glu-L-[^14C]Lys are separated by reverse-phase HPLC on Nucleosil 100C18 5U (150×4.6 mm) in 50 mM ammonium formate, pH 4.7, at 0.6 ml/min, and quantitated by on-line scintillation counting using the Quicksafe Flow 2 scintillating fluid. The residual activity is determined with respect to an assay with 5% DMSO and without inhibitor (taken as 100%). Values presented are means of duplicates.
IC50 values were determined with several concentrations of the inhibitor using the Hill equation:
(§1) log[vi/(vo−vi)]=−n log[l]+logK′
(§2) where vo is the rate without inhibitor, vi the rate in the presence of inhibitor and n the Hill number.

A further test addresses E. coli MurD (Escherichia coli, UniProt P14900). Nature of the test: MurD enzyme assay (Method A). In kind it is biochemical. The conditions noted are these: for activity at 100 µM: read-out: E. coli MurD RA at 100 μM inhibitor conc. The method, then:
Method A: MurD Enzyme Assay
The compounds are tested for their ability to inhibit the formation of UDP-MurNAc-L-Ala-D-[^14C]Glu in mixtures (50 μl) containing 0.1 M Tris-HCl, pH 8.6, 5 mM MgCl2, 5 mM ATP, 25 μM UDP-MurNAc-L-Ala, 25 μM D-[^14C]Glu, inhibitor (100 μM), DMSO (5%, v/v), and enzyme. After 30 min at 37° C., the reaction is stopped by addition of acetic acid (10 μl). After lyophilization, D-[^14C]Glu and of UDP-MurNAc-L-Ala-D-[^14C]Glu are separated by reverse-phase HPLC and quantitated by on-line scintillation counting. The residual activity is determined with respect to an assay with 5% DMSO and without inhibitor (taken as 100%). Values presented are means of duplicates.
IC50 values are determined with several concentrations of the inhibitor using the Hill equation:
as §1, §2

Where [1] appears, read: residual activity at 100 μM inhibitor, assay with 5% DMSO and without inhibitor taken as 100%, means of duplicates.

Chain of E. coli MurD (P14900 whole entry): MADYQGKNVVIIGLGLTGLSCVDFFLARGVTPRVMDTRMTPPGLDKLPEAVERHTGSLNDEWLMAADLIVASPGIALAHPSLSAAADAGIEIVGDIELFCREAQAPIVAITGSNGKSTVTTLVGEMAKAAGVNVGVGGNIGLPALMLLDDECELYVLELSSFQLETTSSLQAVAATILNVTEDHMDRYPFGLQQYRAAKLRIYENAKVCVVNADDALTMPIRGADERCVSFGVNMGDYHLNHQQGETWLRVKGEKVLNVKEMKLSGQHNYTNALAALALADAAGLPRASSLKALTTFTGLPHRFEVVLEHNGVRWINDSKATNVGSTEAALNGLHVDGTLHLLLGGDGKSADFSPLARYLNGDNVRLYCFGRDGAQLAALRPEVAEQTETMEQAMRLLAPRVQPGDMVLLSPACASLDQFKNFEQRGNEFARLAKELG

Consider `O=C1/C(=C/c2c(NCCCO)nc3ccccn3c2=O)SC(=S)N1Cc1ccc2c(c1)OCO2` [Example 1, (Z)-3-(benzo[d][1,3]dioxol-5-yl-methyl)-5-((2-(3-hydroxypropylamino)-4-oxo-4H-pyrido[1,2-a]pyrimidin-3-yl)methylene)-2-thioxothiazolidin-4-one], for which the activity at 100 µM worked out at 82% at S. aureus MurE and 77% at E. coli MurD (setting [1]). For the same molecule, the IC50 against S. aureus MurE and on E. coli MurD was over 100 µM throughout.

With `CNc1nc2ccccn2c(=O)c1/C=C1\SC(=S)N(Cc2ccc3c(c2)OCO3)C1=O` [Example 2, (Z)-3-(benzo[d][1,3]dioxol-5-yl-methyl)-5-((2-(methylamino)-4-oxo-4H-pyrido[1,2-a]pyrimidin-3-yl)methylene)-2-thioxothiazolidin-4-one], the activity at 100 µM is 7% at S. aureus MurE and 22% at E. coli MurD. For the same molecule, the IC50 at S. aureus MurE worked out at 4 µM; against E. coli MurD, 111 µM.

On to `O=C1/C(=C/c2c(NCC3CCCO3)nc3ccccn3c2=O)SC(=S)N1Cc1ccc2c(c1)OCO2` (centres unmarked) [Example 3, (Z)-3-(benzo[d][1,3]dioxol-5-yl-methyl)-5-((4-oxo-2-((tetrahydrofuran-2-yl)methylamino)-4H-pyrido[1,2-a]pyrimidin-3-yl)methylene)-2-thioxothiazolidin-4-one], for which the activity at 100 µM turned out to be 4% on S. aureus MurE and 7% at E. coli MurD (setting [1]). The values for the IC50 against S. aureus MurE and against E. coli MurD were 5 µM and 24 µM, respectively.

For the molecule `O=C1/C(=C/c2c(NCCO)nc3ccccn3c2=O)SC(=S)N1Cc1ccc2c(c1)OCO2` [Example 4, (Z)-3-(benzo[d][1,3]dioxol-5-yl-methyl)-5-((2-(2-hydroxyethylamino)-4-oxo-4H-pyrido[1,2-a]pyrimidin-3-yl)methylene)-2-thioxothiazolidin-4-one], the activity at 100 µM on S. aureus MurE amounted to 4%; at E. coli MurD (setting [1]), 26%. Also, the half-maximal inhibitory concentration (IC50) on S. aureus MurE stood at 4 µM; against E. coli MurD, 15 µM.

With `O=C1/C(=C/c2c(NCCOCCO)nc3ccccn3c2=O)SC(=S)N1Cc1ccc2c(c1)OCO2` [Example 5, (Z)-3-(benzo[d][1,3]dioxol-5-yl-methyl)-5-((2-(2-(2-hydroxyethoxy)ethylamino)-4-oxo-4H-pyrido[1,2-a]pyrimidin-3-yl)methylene)-2-thioxothiazolidin-4-one], the values for the activity at 100 µM on S. aureus MurE and on E. coli MurD (setting [1]) were 10% and 71%, respectively. Besides, the results for the IC50 at S. aureus MurE and at E. coli MurD were 14 µM and over 100 µM, respectively.

Turning to `O=C1/C(=C/c2ccccn2)SC(=S)N1Cc1ccc2c(c1)OCO2` [Example 6, (Z)-3-(benzo[d][1,3]dioxol-5-yl-methyl)-5-(pyridin-2-yl-methylene)-2-thioxothiazolidin-4-one], the activity at 100 µM came to 5% on S. aureus MurE and 99% on E. coli MurD (setting [1]). Also, the IC50 was 37 µM against S. aureus MurE and over 100 µM at E. coli MurD.

As for `O=C1/C(=C/c2cccc([N+](=O)[O-])c2)SC(=S)N1Cc1ccc2c(c1)OCO2` [Example 7, (Z)-3-(benzo[d][1,3]dioxol-5-yl-methyl)-5-(3-nitrobenzylidene)-2-thioxothiazolidin-4-one], the activity at 100 µM at S. aureus MurE amounted to 19%; at E. coli MurD (setting [1]), 98%. Further, the IC50 against S. aureus MurE was 7 µM; against E. coli MurD, over 100 µM.

As to `O=C1/C(=C/c2ccccc2O)SC(=S)N1Cc1ccc2c(c1)OCO2` [Example 8, (Z)-3-(benzo[d][1,3]dioxol-5-yl-methyl)-5-(2-hydroxybenzylidene)-2-thioxothiazolidin-4-one], the activity at 100 µM worked out at 23% at S. aureus MurE and 100% at E. coli MurD (setting [1]). Besides, the figures for the IC50 at S. aureus MurE and against E. coli MurD were 1.5 µM and over 100 µM, respectively.

As to `N#Cc1nc(/C=C2/SC(=S)N(Cc3ccc4c(c3)OCO4)C2=O)oc1N1CCOCC1` [Example 9, (E)-2-((3-(benzo[d][1,3]dioxol-5-yl-methyl)-4-oxo-2-thioxothiazolidin-5-ylidene)methyl)-5-morpholinooxazole-4-carbonitrile], the activity at 100 µM at S. aureus MurE is 17%; at E. coli MurD (setting [1]), 98%. For the same molecule, the 50% inhibitory concentration (IC50) was 51 µM against S. aureus MurE and over 100 µM on E. coli MurD.

In the case of `O=C1/C(=C/c2cccc(O)c2)SC(=S)N1Cc1ccc2c(c1)OCO2` [Example 10, (Z)-3-(benzo[d][1,3]dioxol-5-yl-methyl)-5-(3-hydroxybenzylidene)-2-thioxothiazolidin-4-one], the results for the activity at 100 µM at S. aureus MurE and at E. coli MurD (setting [1]) were 31% and 97%, respectively. Further, the IC50 against S. aureus MurE was 13 µM; against E. coli MurD, over 100 µM.

Turning to `CN(C)c1ccc(/C=C2\SC(=S)N(Cc3ccc4c(c3)OCO4)C2=O)cc1` [Example 11, (Z)-3-(benzo[d][1,3]dioxol-5-yl-methyl)-5-(4-(dimethylamino)benzylidene)-2-thioxothiazolidin-4-one], the figures for the activity at 100 µM on S. aureus MurE and on E. coli MurD (setting [1]) were 25% and 95%, respectively. Further, the concentration for half-maximal inhibition (IC50) against S. aureus MurE is 4.5 µM; against E. coli MurD it was over 100 µM.

Consider `CCN(CC)c1ccc(/C=C2\SC(=S)N(Cc3ccc4c(c3)OCO4)C2=O)cc1` [Example 12, (Z)-3-(benzo[d][1,3]dioxol-5-yl-methyl)-5-(4-(diethylamino)benzylidene)-2-thioxothiazolidin-4-one], for which the results for the activity at 100 µM on S. aureus MurE and on E. coli MurD (setting [1]) were 59% and 78%, respectively. Besides, the IC50 against S. aureus MurE and against E. coli MurD was over 100 µM throughout.

On to `COc1ccccc1/C=C1\SC(=S)N(Cc2ccc3c(c2)OCO3)C1=O` [Example 13, (Z)-3-(benzo[d][1,3]dioxol-5-yl-methyl)-5-(2-methoxybenzylidene)-2-thioxothiazolidin-4-one], for which the activity at 100 µM at S. aureus MurE is 90%; at E. coli MurD (setting [1]) it was 75%. In addition, the IC50 against S. aureus MurE and at E. coli MurD was over 100 µM throughout.

`COc1ccc(/C=C2\SC(=S)N(Cc3ccc4c(c3)OCO4)C2=O)c(OC)c1` [Example 14, (Z)-3-(benzo[d][1,3]dioxol-5-yl-methyl)-5-(2,4-dimethoxybenzylidene)-2-thioxothiazolidin-4-one]: the activity at 100 µM at S. aureus MurE was found to be 67%; at E. coli MurD (setting [1]), 72%. The IC50 against S. aureus MurE and at E. coli MurD was over 100 µM in each case.
